Test results: patent US20080293820A1, “METHODS FOR IMPROVING PHYSICAL FUNCTION IN FIBROMYALGIA” (Cypress Bioscience, Inc., priority 2007, published 2008)
Values joined by “and” are separate entries in the source; they are usually repeats but may differ in a detail not shown here. Identical values can stand only once. Counter-ions that a name gives are not always drawn.

Tests used:
[1] = tested on: patients who met the 1990 ACR criteria for fibromyalgia syndrome; assay: Example 1: multi-center double-blind, randomized, placebo-controlled study of milnacipran for the treatment of fibromyalgia (888 patients); format: in vivo, human; parameters: Mean Change from Baseline in PFI SF-36 domain score / Mean Change from Baseline in PAIN SF-36 domain score / Mean Change from Baseline in GHP SF-36 domain score / Mean Change from Baseline in ROLP SF-36 domain score: scale not given here; settings: for responders for the treatment of the pain of fibromyalgia (pain composite), % = m/n: observed cases (OC), hydrochloride; for odds ratio of response / number of responders m (pain of fibromyalgia): OC; for Mean Change from Baseline in GHP SF-36 domain score / Mean Change from Baseline in PAIN SF-36 domain score / Mean Change from Baseline in PCS Score / Mean Change from Baseline in PFI SF-36 domain score / Mean Change from Baseline in ROLP SF-36 domain score: Observed Cohort
Procedure: The primary outcome was a composite responder analysis assessing response rate at weeks 14 and 15, and the secondary analysis assessed response rate at weeks 26 and 27.
This was a multi-center, randomized, double-blinded, placebo-controlled three-arm study, which enrolled 888 patients who met the 1990 ACR criteria for fibromyalgia syndrome as well as the more detailed admission criteria outlined in the protocol.
Patients were randomized to receive either placebo, 100 mg/day milnacipran, or 200 mg/day milnacipran in a ratio of a 1:1:2. All randomized medications (placebo and milnacipran) were administered in a split-dose (BID) fashion. The doses were administered in a dose escalation regimen as outlined below:
All patients were scheduled to receive a total of 24 weeks of milnacipran or placebo after the 3 weeks of dose escalation steps, for a total of 27 weeks of milnacipran or placebo exposure.
The primary endpoint of this study was a composite responder analysis implementing analysis of three domains of interest, evaluated at […]. The domains measured were:
1) pain (measured by an electronic diary as a daily recall pain score, calculated to weekly average scores)
2) patient global (measured by the PGIC, 1-7 scale)
3) physical function (measured by the SF-36 PCS).
For the primary analysis, the pain domain score was determined by a calculation that compared the average of treatment weeks 14 and 15 to the two baseline weeks, and treatment weeks 26 and 27 vs. baseline for the secondary analysis. The last observation was carried forward if neither the week 14 nor week 15 (or week 26/27) patient self-reported pain score is available to compare to the baseline value.
A responder was defined as a subject who experienced a greater than 30% reduction in pain from baseline and improvement on the PGIC.
At three months, the percentage of responders was: 35.44% (56/158) in the placebo group; 53.33% (72/135) (p=0.001) in the milnacipran 100 mg/day group; and 55.00% (143/260) (p<0.001) in the milnacipran 200 mg/day group. At six months, the percentage of responders was: 32.86% (46/140) in the placebo group; 49.59% (60/121) (p=0.002) in the milnacipran 100 mg/day group; and 51.74% (119/230) (p<0.001) in the milnacipran 200 mg/day group. See Table 1 for a summary of the results in the Intent-to-Treat Population and Table 2 for a summary of the Last Observation Carried Forward (LOCF), Baseline Observation Carried Forward (BOCF) and study completer (OC) populations. LOCF is an analysis in which observations are carried forward to the last time point for patients who dropped out. The LOCF analysis treats the carried-forward data as observed data at the last time point. BOCF is an analysis that requires the patient remain active in the trial to be evaluated for response. If a patient withdraws from the trial for any reason they are classed as a non-responder irregardless of their pain and global scores at the time of withdrawal.
The following domains were used to evaluate the PCS score: physical function (PFI), role physical (ROLP), bodily pain (PAIN), general health profile (GHP), […] (VIT), social role (SOC), role emotional (ROLE) and mental health index (MHI). The PFI, ROLP, PAIN and GHP domains are positively weighted in the PCS calculation, and the VIT, SOC, ROLE and MHI domains are negatively weighted in the PCS calculation (Normative Value=50, SD=10).

fibromyalgia patients = settings: cited from earlier work
[2] = both milnacipran treatment groups (QD and BID), escalation to maximum 200 mg/day

Question: What does the source list for `CCN(CC)C(=O)C1(c2ccccc2)CC1CN` (racemic) [milnacipran, Z-2-aminomethyl-1-phenyl-N,N-diethylcyclopropanecarboxamide hydrochloride]?
Answer: physical function in patients with fibromyalgia compared to placebo (in words) ([1]; 100 mg or 200 mg): surprisingly and effectively improves physical function; responders for the treatment of the pain of fibromyalgia (pain composite), % = m/n ([1]; 100 mg/day, treatment weeks 14-15 (3 months)): 53.33% and 53.3%; responders for the treatment of the pain of fibromyalgia (pain composite), % = m/n ([1]; 100 mg/day, treatment weeks 14-15 (3 months), listed as Milnacipran): 53.33%; responders for the treatment of the pain of fibromyalgia (pain composite), % = m/n ([1]; 100 mg/day, treatment weeks 26-27 (6 months)): 49.59% and 49.6%; responders for the treatment of the pain of fibromyalgia (pain composite), % = m/n ([1]; 100 mg/day, treatment weeks 26-27 (6 months), listed as Milnacipran): 49.59%; odds ratio of response ([1]; 100 mg/day, weeks 14-15): 2.10; number of responders m (pain of fibromyalgia) ([1]; 100 mg/day, weeks 14-15, n=135): 72; odds ratio of response ([1]; 100 mg/day, weeks 26-27): 1.96; number of responders m (pain of fibromyalgia) ([1]; 100 mg/day, weeks 26-27, n=121): 60; Pain Composite responder rate, Sensitivity Analysis II ([1]; 100 mg, 3 month): 32.%; Pain Composite responder rate, Sensitivity Analysis III ([1]; 100 mg, 3 month): 32.1%; Pain Composite responder rate, Sensitivity Analysis I (BOCF) ([1]; 100 mg, 3 month): 32.1%; Individual component responder rate: PGIC (LOCF) ([1]; 100 mg, 3 month): 54.0%; Individual component responder rate: Pain (LOCF) ([1]; 100 mg, 3 month): 35.7%; Pain Composite responder rate, Primary Analysis (LOCF) ([1]; 100 mg, 3 month): 33.5%; Pain Composite responder rate, Sensitivity Analysis II ([1]; 100 mg, 6 month): 27.2%; Pain Composite responder rate, Sensitivity Analysis III ([1]; 100 mg, 6 month): 29.5%; Pain Composite responder rate, Sensitivity Analysis I (BOCF) ([1]; 100 mg, 6 month): 26.8%; Individual component responder rate: PGIC (LOCF) ([1]; 100 mg, 6 month): 49.6%; Individual component responder rate: Pain (LOCF) ([1]; 100 mg, 6 month): 35.7%; Pain Composite responder rate, Primary Analysis (LOCF) ([1]; 100 mg, 6 month): 30.8%; Mean Change from Baseline in GHP SF-36 domain score ([1]; 100 mg, Tx 3): 5.9; Mean Change from Baseline in PAIN SF-36 domain score ([1]; 100 mg, Tx 3): 11.8; Mean Change from Baseline in PCS Score ([1]; 100 mg, Tx 3): 3.6; Mean Change from Baseline in PFI SF-36 domain score ([1]; 100 mg, Tx 3): 6.4; Mean Change from Baseline in ROLP SF-36 domain score ([1]; 100 mg, Tx 3): 12.3; Mean Change from Baseline in GHP SF-36 domain score ([1]; 100 mg, Tx 7): 6.3; Mean Change from Baseline in PAIN SF-36 domain score ([1]; 100 mg, Tx 7): 15.0; Mean Change from Baseline in PCS Score ([1]; 100 mg, Tx 7): 4.6; Mean Change from Baseline in PFI SF-36 domain score ([1]; 100 mg, Tx 7): 7.6; Mean Change from Baseline in ROLP SF-36 domain score ([1]; 100 mg, Tx 7): 16.4; Mean Change from Baseline in GHP SF-36 domain score ([1]; 100 mg, Tx 11): 8.1; Mean Change from Baseline in PAIN SF-36 domain score ([1]; 100 mg, Tx 11): 19.4; Mean Change from Baseline in PCS Score ([1]; 100 mg, Tx 11): 5.9; Mean Change from Baseline in PFI SF-36 domain score ([1]; 100 mg, Tx 11): 10.6; Mean Change from Baseline in ROLP SF-36 domain score ([1]; 100 mg, Tx 11): 18.6; Mean Change from Baseline in GHP SF-36 domain score ([1]; 100 mg, Tx 15): 7.8; Mean Change from Baseline in PAIN SF-36 domain score ([1]; 100 mg, Tx 15): 18.1; Mean Change from Baseline in PCS Score ([1]; 100 mg, Tx 15): 6.2; Mean Change from Baseline in PFI SF-36 domain score ([1]; 100 mg, Tx 15): 11.4; Mean Change from Baseline in ROLP SF-36 domain score ([1]; 100 mg, Tx 15): 19.3; responders for the treatment of the pain of fibromyalgia (pain composite), % = m/n ([1]; 200 mg/day, treatment weeks 14-15 (3 months)): 55.0%; responders for the treatment of the pain of fibromyalgia (pain composite), % = m/n ([1]; 200 mg/day, treatment weeks 14-15 (3 months), listed as Milnacipran): 55.00%; responders for the treatment of the pain of fibromyalgia (pain composite), % = m/n ([1]; 200 mg/day, treatment weeks 26-27 (6 months)): 51.74% and 51.7%; responders for the treatment of the pain of fibromyalgia (pain composite), % = m/n ([1]; 200 mg/day, treatment weeks 26-27 (6 months), listed as Milnacipran): 51.74%; odds ratio of response ([1]; 200 mg/day, weeks 14-15): 2.20; number of responders m (pain of fibromyalgia) ([1]; 200 mg/day, weeks 14-15, n=260): 143; odds ratio of response ([1]; 200 mg/day, weeks 26-27): 2.20; number of responders m (pain of fibromyalgia) ([1]; 200 mg/day, weeks 26-27, n=230): 119; Pain Composite responder rate, Sensitivity Analysis II ([1]; 200 mg, 3 month): 32.7%; Pain Composite responder rate, Sensitivity Analysis III ([1]; 200 mg, 3 month): 32.4%; Pain Composite responder rate, Sensitivity Analysis I (BOCF) ([1]; 200 mg, 3 month): 32.4%; Individual component responder rate: PGIC (LOCF) ([1]; 200 mg, 3 month): 50.6%; Individual component responder rate: Pain (LOCF) ([1]; 200 mg, 3 month): 38.3%; Pain Composite responder rate, Primary Analysis (LOCF) ([1]; 200 mg, 3 month): 34.9%; Pain Composite responder rate, Sensitivity Analysis II ([1]; 200 mg, 6 month): 28.6%; Pain Composite responder rate, Sensitivity Analysis III ([1]; 200 mg, 6 month): 29.9%; Pain Composite responder rate, Sensitivity Analysis I (BOCF) ([1]; 200 mg, 6 month): 27.0%; Individual component responder rate: PGIC (LOCF) ([1]; 200 mg, 6 month): 49.9%; Individual component responder rate: Pain (LOCF) ([1]; 200 mg, 6 month): 35.4%; Pain Composite responder rate, Primary Analysis (LOCF) ([1]; 200 mg, 6 month): 32.2%; Mean Change from Baseline in GHP SF-36 domain score ([1]; 200 mg, Tx 3): 6.0; Mean Change from Baseline in PAIN SF-36 domain score ([1]; 200 mg, Tx 3): 12.5; Mean Change from Baseline in PCS Score ([1]; 200 mg, Tx 3): 3.6; Mean Change from Baseline in PFI SF-36 domain score ([1]; 200 mg, Tx 3): 8.2; Mean Change from Baseline in ROLP SF-36 domain score ([1]; 200 mg, Tx 3): 13.0; Mean Change from Baseline in GHP SF-36 domain score ([1]; 200 mg, Tx 7): 8.5; Mean Change from Baseline in PAIN SF-36 domain score ([1]; 200 mg, Tx 7): 18.6; Mean Change from Baseline in PCS Score ([1]; 200 mg, Tx 7): 5.9; Mean Change from Baseline in PFI SF-36 domain score ([1]; 200 mg, Tx 7): 11.0; Mean Change from Baseline in ROLP SF-36 domain score ([1]; 200 mg, Tx 7): 19.0; Mean Change from Baseline in GHP SF-36 domain score ([1]; 200 mg, Tx 11): 7.7; Mean Change from Baseline in PAIN SF-36 domain score ([1]; 200 mg, Tx 11): 16.8; Mean Change from Baseline in PCS Score ([1]; 200 mg, Tx 11): 5.6; Mean Change from Baseline in PFI SF-36 domain score ([1]; 200 mg, Tx 11): 10.7; Mean Change from Baseline in ROLP SF-36 domain score ([1]; 200 mg, Tx 11): 18.4; Mean Change from Baseline in GHP SF-36 domain score ([1]; 200 mg, Tx 15): 8.2; Mean Change from Baseline in PAIN SF-36 domain score ([1]; 200 mg, Tx 15): 19.3; Mean Change from Baseline in PCS Score ([1]; 200 mg, Tx 15): 6.1; Mean Change from Baseline in PFI SF-36 domain score ([1]; 200 mg, Tx 15): 11.9; Mean Change from Baseline in ROLP SF-36 domain score ([1]; 200 mg, Tx 15): 19.9; effect on the symptom of pain in FMS (in words) (fibromyalgia patients; 100 mg BID): effective acute (short-term) therapy; PGIC: completers who reported an improvement in their overall status (fibromyalgia patients; [2]): over 70%; PGIC: completers who reported worsening (fibromyalgia patients; [2]): 10%
